In patent US11921105B2, “Method for identifying positive allosteric modulators for odorant receptors” (FIRMENICH SA, priority 2017, dated 2024):
Like-named read-outs stand apart in the source and are kept apart here.

Key:
[1] = target: T1, OR10J5 olfactory receptor (Homo sapiens, UniProt Q8NHC4, R233W); assay: Single point binary mixture screen (LYRAL® + test compound) for OR10J5 activity enhancement; assay type: cell-based; settings: LYRAL® 4.6 and test compound 300 μM; numbered by decreasing OR10J5 activity (span)
T1 construct: Lucy (cleavable leucine-rich signal peptide) (N); FLAG (N); Rho (first 20 aa of bovine rhodopsin) (N); expressed in transfected cells
T1 sequence (Q8NHC4 1-309 R233W): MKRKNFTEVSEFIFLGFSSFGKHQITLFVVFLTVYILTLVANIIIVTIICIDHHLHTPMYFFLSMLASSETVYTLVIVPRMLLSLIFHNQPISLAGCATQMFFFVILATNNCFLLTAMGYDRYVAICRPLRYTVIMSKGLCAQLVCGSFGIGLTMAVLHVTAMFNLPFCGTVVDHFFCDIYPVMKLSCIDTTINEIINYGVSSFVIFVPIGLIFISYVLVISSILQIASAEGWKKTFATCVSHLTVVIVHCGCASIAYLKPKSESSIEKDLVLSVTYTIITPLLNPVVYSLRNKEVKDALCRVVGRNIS
From the text: The Lucy-Flag-Rho-tagged receptor is co-transfected with the olfactory canonical G-protein Golf and exposed to a binary mixture of a single concentration of a floral muguet compound and a test compound.
A dose response curve showing the activation of OR10J5 in response to the floral muguet compound […], 4-(4-hydroxy-4-methylpentyl)cyclohex-3-ene-1-carbaldehyde or a mixture thereof (sold under the tradename LYRAL®, hereinafter referred to as “LYRAL®”) is shown in FIG. 15. Using a cell-based assay, OR10J5 activity was tested in a HEK293T cell line wherein the endogenous chaperone RTP1 gene has been activated and the odorant receptor chaperone was expressed according to the methods disclosed in International Patent Application Publication No. WO2016/201153 A1. The Flag-Rho-tagged receptor was co-transfected with the olfactory canonical G-protein Golf and was exposed to a binary mixture of a single concentration of LYRAL® and a test compound.
A library of volatile compounds was used to create binary mixtures of each compound with LYRAL® at approximately EC20, a concentration eliciting only approximately 20% of full activity level of OR10J5 by itself. An activation cell-based assay was used for the initial enhancer candidate identification. Single binary mixture-induced receptor activity was detected by measuring the cAMP increase in the cytosol using an HTRF (Homogenous Time-Resolved Fluorescence unit) based kit (CisBio, cAMP dynamic 2 kit, 62AM4PEJ).
800 binary mixtures were created by mixing a LYRAL® stock solution with a stock solution of each test compound to a final concentration 4.6 and 300 μM, respectively. Stock solutions were made of compounds dissolved in pure DMSO. Each mixture was presented to a cell line expressing the OR10J5 olfactory receptor. The final concentration of DMSO in each binary mixture was 0.1%, and had no visible effect on the cells (see FIG. 16).
The resulting activation was then measured and compared to LYRAL® alone (defining the baseline of the enhancement assay). The quality of the HTS process was determined and the window variability and signal reliability were assessed by calculating the Z′ value of each plate. […] These OR10J5 olfactory receptor agonists further confirmed that the dynamic range of the assay window was sufficient (as the responses recorded were well above baseline) and thus likely sensitive enough to detect even low levels of putative enhancement.

[2] = target: T2, OR5AN1 olfactory receptor (Homo sapiens, UniProt Q8NGI8); assay: OR5AN1 dose-response of musk agonist with and without modulator, and of candidate alone (EC50 shift, span); assay type: cell-based; settings: 250 μM of each compound
T2 construct: FLAG (N); Rho (first 20 aa of bovine rhodopsin) (N); expressed in transfected cells
T2 sequence (Q8NGI8 1-311): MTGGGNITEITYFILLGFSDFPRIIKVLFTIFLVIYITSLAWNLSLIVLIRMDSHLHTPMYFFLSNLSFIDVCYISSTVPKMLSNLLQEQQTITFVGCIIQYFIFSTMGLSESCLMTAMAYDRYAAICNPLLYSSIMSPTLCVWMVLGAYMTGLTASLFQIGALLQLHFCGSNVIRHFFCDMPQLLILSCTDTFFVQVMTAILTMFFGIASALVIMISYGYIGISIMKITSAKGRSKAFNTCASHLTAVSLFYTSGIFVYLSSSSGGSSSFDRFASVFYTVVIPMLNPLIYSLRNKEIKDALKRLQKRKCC
Procedure: 15 candidates, marked as “enhancement” in Table 2 were identified. Strikingly, 80% of these putative enhancers (12/15) belonged to the same class of chemicals: unsaturated aliphatic aldehydes. Next, two parallel dose-response experiments to confirm the true enhancement properties of the potential candidates were performed. First, a dose-response of each individual candidate was performed to determine if it was an agonist by itself. Second, a MUSCENONE® dose-response curve in the presence and absence of a 250 μM concentration of the putative modulator was assessed for EC50 shifts.
Dose response curves to MUSCENONE® were obtained in the presence of 250 μM of each compound and compared to a dose-response curve of MUSCENONE® alone. The resulting enhancement was quantified by means of EC50-fold shift (potency increase) and the efficacy span ratio (efficacy increase).
The EC50-fold shift was obtained by […]. The span ratio was obtained by dividing the span of MUSCENONE®+compound by the reference span of MUSCENONE® alone. Specifically, diverse aliphatic α-β mono- or poly-unsaturated molecules have been compared.

[3] = target: T3, OR10J5 (Homo sapiens, UniProt Q8NHC4, R233W); assay: OR10J5 LYRAL® dose-response at serial enhancer concentrations, allosteric EC50 shift model; assay type: cell-based
T3 construct: Lucy (cleavable leucine-rich signal peptide) (N); FLAG (N); Rho (first 20 aa of bovine rhodopsin) (N); expressed in transfected cells
T3 sequence (Q8NHC4 1-309 R233W): T1 sequence (Q8NHC4 1-309 R233W)
Procedure: Functional dose-response experiments were performed to reveal the allosteric nature of the interaction between heliopropanal, 3-(4-methylcyclohex-3-en-1-yl)butanal, melonal and heptanal and OR10J5. The level of enhancement of OR10J5's activation was evaluated at distinct concentrations of each enhancer. Using the same cell-based assay described earlier, dose response curves of OR10J5 to LYRAL® in the presence of serial concentrations of the enhancers spanning from 0 to 600 μM were performed, see FIG. 19. The curves were obtained by applying the simplified Allosteric EC50 shift effect equation (available in Prism7) derived from the ternary complex interaction model. The enhancement levels recorded were not linearly dependent on the concentration of the enhancer, and the following key parameters values for α (the cooperativity factor) and KB (the equilibrium dissociation constant of the enhancer) were obtained from the model for each enhancer: heliopropanal, α=6.3 and KB=10 μM; 3-(4-methylcyclohex-3-en-1-yl)butanal, α=7.5 and KB=15 μM; melonal, α=4.1 and KB=16 μM; and heptanal; α=3.2 and KB=51 μM. α>1 is indicative of positive allosteric modulation.

[4] = target: T3, OR10J5; assay: OR10J5 (+−)-2,5-dimethyl-2-indanmethanol dose-response with test compound; assay type: cell-based
Procedure: OR10J5 activity enhancement was tested with an additional agonist and with one of the test compounds and conditions described in the Examples above. Dose response curves to (+−)-2,5-dimethyl-2-indanmethanol was obtained in the presence of a steady concentration of the test compound and compared to a dose-response curve of the agonist alone. The resulting enhancement was quantified by means of EC50-fold shift (potency increase) and the efficacy span ratio (efficacy increase) as described above.

[5] = tested on: human panelists; assay: Human MUSCENONE® odor detection threshold (ODT), forced-choice triangle tests with background odor; assay type: in vivo; settings: background compound at 0.1%; 2/3 correct responses
Procedure: Sensitivity of human individuals to MUSCENONE® was evaluated by performing an odor detection threshold (ODT) test. The ODT test consisted of identifying the concentration for which 50%, preferably 66%, of the panelists are able to determine which of three containers contains the target compound MUSCENONE® in a forced-choice triangle tests. Two tests were performed to calculate the ODT in mixtures containing MUSCENONE® plus a perceivable background odor of chemically similar molecules a) the enhancer tridecylenic aldehyde and b) the non-enhancing volatile compound, nonanal.
27 panelists were given a series of triangle tests with increasing concentration of MUSCENONE® in the presence of nonanal at a concentration of 0.1%. Within each triangle test, the three samples contained nonanal at 0.1% and one sample also contained MUSCENONE®. In each triangle test, the panelists were asked to identify the one sample that was different from the other two samples. The ODT was calculated by fitting a non-linear regression model onto the data and calculating the MUSCENONE® concentration at which the proportion of correct responses was equal to 2/3 (66%, the midpoint between chance rate 1/3 and all correct answers 1). […]

[6] = target: T4, OR5AN1 (Homo sapiens, UniProt Q8NGI8); assay: OR5AN1 MUSCENONE® dose-response at serial enhancer concentrations, allosteric EC50 shift model; assay type: cell-based; settings: enhancer 0 to 1 mM; for Kb: read-out: KB (equilibrium dissociation constant)
T4 construct: FLAG (N); Rho (first 20 aa of bovine rhodopsin) (N); expressed in transfected cells
T4 sequence (Q8NGI8 1-311): T2 sequence (Q8NGI8 1-311)
Procedure: The level of enhancement of OR5AN1's activation was evaluated at distinct concentrations of the enhancer. […] The curves were obtained by applying the simplified Allosteric EC50 shift effect equation (available in Prism5, v. 5.02) derived from the ternary complex interaction model. The enhancement levels recorded were not linearly dependent on the concentration of the enhancer, and the following key parameters values for a (the cooperativity factor) and KB (the equilibrium dissociation constant of TDA) obtained from the model: α=15.7 and KB=259 μM. α>1 is indicative of positive allosteric modulation.

[7] = LYRAL®, enhancer 0 to 600 μM, read-out: KB (equilibrium dissociation constant of the enhancer)

SMILES | Hit Type [1] | also measured
CCCCCC=O [Hit 24] | Enhancement | –
C[C@@H](CC=O)CCCC(C)(C)O [Hit 25] | Agonist | –
CC(C)=CCCC(C)C=O (stereo not shown) [Hit 27] | Enhancement | –
CC/C=C\CCCCC=O [Hit 23] | Enhancement | –
O=Cc1ccc2c(c1)OCO2 [Hit 37] | Enhancement | –
CCc1occc(=O)c1O [Hit 40] | Enhancement | –
CC1=CC(C)C(C=O)C(C)C1 (stereo not shown) [Hit 39] | Enhancement | –
C=CCCCCCCCCC(=O)O [undecenoic acid] | – | enhancement of OR5AN1 MUSCENONE® response (SAR) [2]: absence of enhancement
CC(C)=CCCC(C)C=O (stereo not shown) [melonal] | – | α (cooperativity factor) ([3]; LYRAL®, enhancer 0 to 600 μM): 4.1; Kb [3, 7]: 16 µM
CCCCCCC=O [Heptanal] | – | α (cooperativity factor) ([3]; LYRAL®, enhancer 0 to 600 μM): 3.2; Kb [3, 7]: 51 µM
CCCCCC/C=C/C=O [Hit 44] | Enhancement | –
Cc1ccc2c(c1)CC(C)(CO)C2 (racemic) [(+−)-2,5-dimethyl-2-indanmethanol, reference compound] | – | agonist type on OR10J5 [4]: partial agonist
CCCCCCCCC=O [nonanal, reference compound] | – | MUSCENONE® ODT value when mixed with the compound [5]: 0.93%
CC(C)=CCCC1=CCC(C)(C=O)CC1 (stereo not shown) [Hit 26] | Enhancement | –
COC(C)(C)CCCC(C)C=O (stereo not shown) [Hit 43] | Enhancement | –
CCCCCC/C=C/C=O [Nonylenic aldehyde] | – | α (cooperativity factor) [6]: 28.8; Kb [6]: 96 µM
CCCCCCCCC=O [Hit 33] | Enhancement | –
CCCCCCCC=CC=O [Hit 2-decenal, 2-decenal] | – | α (cooperativity factor) [6]: 37.3; Kb [6]: 264 µM
O=Cc1ccccc1 [Hit 28] | Enhancement | –
CC1=CC[C@H](C(C)CC=O)CC1 (stereo partly shown) [3-(4-methylcyclohex-3-en-1-yl)butanal] | – | α (cooperativity factor) ([3]; LYRAL®, enhancer 0 to 600 μM): 7.5; Kb [3, 7]: 15 µM
CCCCCCC1CCCC(=O)O1 (stereo not shown) [Hit 35] | Enhancement | –
CC(C=O)Cc1ccc2c(c1)OCO2 (stereo not shown) [heliopropanal] | – | Kb [3]: 10 µM; α (cooperativity factor) ([3]; LYRAL®, enhancer 0 to 600 μM): 6.3; efficacy increase of (+−)-2,5-dimethyl-2-indanmethanol ([4]; within the dynamic range of the dose response): 1.7 fold
C[C@@H]1CC[C@H]2[C@H](C)C(=O)O[C@@H]2C1 [Hit 42] | Enhancement | –
C=CC(C)CCCC(C)(C)O (stereo not shown) [Hit 34] | Agonist | –
Cc1ccc(CC(C)C=O)cc1 (stereo not shown) [Hit 36] | Enhancement | –
CCCCC/C=C/C=C/C=O [Hit 32] | Enhancement | –
CCc1ccc(C=O)cc1 [Hit 41] | Enhancement | –
